Legend:
Type in all cases: in vivo
[1] = test system: Alopecurus myosuroides (ALOMY); experiment: Example B pre-emergence herbicidal activity, glasshouse pot test; settings: 312 h, rate 250 g/ha, evaluated after 13 days, scale 0-100, read-out: Pre-emergence activity ALOMY (100=total damage to plant; 0=no damage to plant)
Experimental: (§1) Seeds of a variety of test species were sown in standard soil in pots. After cultivation for one day (pre-emergence) or after 8 days cultivation (post-emergence) under controlled conditions in a glasshouse (at 24/16° C., day/night; 14 hours light; 65% humidity), the plants were sprayed with an aqueous spray solution derived from the formulation of the technical active ingredient of formula I in acetone/water (50:50) solution containing 0.5% Tween 20 (polyoxyethelyene sorbitan monolaurate, CAS RN 9005-64-5). The test plants were then grown in a glasshouse under controlled conditions in a glasshouse (at 24/16° C., day/night; 14 hours light; 65% humidity) and watered twice daily. After 13 days for pre and post-emergence, the test was evaluated (100=total damage to plant; 0=no damage to plant). Setaria faberi (SETFA), Lolium perenne (LOLPE), Alopecurus myosuroides (ALOMY), Echinochloa crus-galli (ECHCG), and Avena fatua (AVEFA). Pre-Emergence Activity

[2] = test system: Avena fatua (AVEFA); experiment: as above; settings: 312 h, rate 250 g/ha, evaluated after 13 days, scale 0-100, read-out: Pre-emergence activity AVEFA (100=total damage to plant; 0=no damage to plant)
Experimental: as §1

[3] = test system: Echinochloa crus-galli (ECHCG); experiment: as above; settings: 312 h, rate 250 g/ha, evaluated after 13 days, scale 0-100, read-out: Pre-emergence activity ECHCG (100=total damage to plant; 0=no damage to plant)
Experimental: as §1

[4] = test system: Lolium perenne (LOLPE); experiment: as above; settings: 312 h, rate 250 g/ha, evaluated after 13 days, scale 0-100, read-out: Pre-emergence activity LOLPE (100=total damage to plant; 0=no damage to plant)
Experimental: as §1

[5] = test system: Alopecurus myosuroides (ALOMY); experiment: Example B post-emergence herbicidal activity, glasshouse pot test; settings: 312 h, rate 250 g/ha, evaluated after 13 days, scale 0-100, read-out: Post-emergence activity ALOMY (100=total damage to plant; 0=no damage to plant)
Experimental: as §1, with “Post-Emergence” for “Pre-Emergence”

[6] = test system: Avena fatua (AVEFA); experiment: as above; settings: 312 h, rate 250 g/ha, evaluated after 13 days, scale 0-100, read-out: Post-emergence activity AVEFA (100=total damage to plant; 0=no damage to plant)
Experimental: as §1, with “Post-Emergence” for “Pre-Emergence”

[7] = test system: Echinochloa crus-galli (ECHCG); experiment: as above; settings: 312 h, rate 250 g/ha, evaluated after 13 days, scale 0-100, read-out: Post-emergence activity ECHCG (100=total damage to plant; 0=no damage to plant)
Experimental: as §1, with “Post-Emergence” for “Pre-Emergence”

[8] = test system: Lolium perenne (LOLPE); experiment: as above; settings: 312 h, rate 250 g/ha, evaluated after 13 days, scale 0-100, read-out: Post-emergence activity LOLPE (100=total damage to plant; 0=no damage to plant)
Experimental: as §1, with “Post-Emergence” for “Pre-Emergence”

SMILES | pest or weed control at 250 g/ha [1] | pest or weed control at 250 g/ha [2] | pest or weed control at 250 g/ha [3] | pest or weed control at 250 g/ha [4] | pest or weed control at 250 g/ha [5] | pest or weed control at 250 g/ha [6] | pest or weed control at 250 g/ha [7] | pest or weed control at 250 g/ha [8]
CCc1ccc(-c2ccc(Cl)cc2F)cc1C1=C(O)C(C)(C)CC(C)(C)C1=O [Compound T60] | 0% | 30% | 90% | 80% | 10% | 30% | 100% | 80%
CCc1ccc(-c2ccc(Cl)cc2)cc1C1=C(O)C(C)(C)CC(C)(C)C1=O [Compound T69] | 10% | 0% | 90% | 90% | 20% | 40% | 100% | 100%
CCc1ccc(-c2ccc(Cl)c(Cl)c2)cc1C1=C(O)CC(C)(C)CC1=O [Compound T22] | 20% | 40% | 90% | 80% | 70% | 40% | 100% | 100%
CCc1ccc(-c2ccc(Cl)c(C(F)(F)F)c2F)cc1C1=C(O)CCCC1=O [Compound T53] | 20% | 0% | 40% | 40% | 40% | 80% | 100% | 100%
CCc1ccc(-c2ccc(Cl)c(C(F)(F)F)c2)cc1C1=C(O)C(C)(C)CCC1=O [Compound T8] | 0% | 20% | 100% | 90% | 40% | 30% | 100% | 80%
CCc1ccc(-c2ccc(Cl)cc2C)cc1C1=C(O)CCCC1=O [Compound T48] | 0% | 20% | 90% | 80% | 20% | 10% | 100% | 50%
CCc1ccc(-c2ccc(Cl)c(F)c2F)cc1C1=C(O)CCCC1=O [Compound T52] | 40% | 30% | 100% | 90% | 70% | 80% | 100% | 100%
CCc1ccc(-c2ccc(Cl)c(F)c2Cl)cc1C1=C(O)CC(C)(C)CC1=O [Compound T29] | 40% | 0% | 90% | 70% | 40% | 30% | 100% | 100%
CCc1ccc(-c2ccc(Cl)c(Cl)c2)cc1C1=C(O)C(C)(C)CC(C)(C)C1=O [Compound T67] | 10% | 0% | 60% | 10% | 20% | 20% | 80% | 40%
CCc1ccc(-c2ccc(C(F)(F)F)cc2)cc1C1=C(O)CCCC1=O [Compound T59] | 100% | 100% | 100% | 100% | 100% | 100% | 100% | 100%
CCc1ccc(-c2ccc(Cl)cc2Cl)cc1C1=C(O)C(C)(C)CC(C)(C)C1=O [Compound T61] | 20% | 50% | 90% | 70% | 10% | 30% | 90% | 40%
CCc1ccc(-c2ccc(Cl)c(C(F)(F)F)c2)cc1C1=C(O)CC(C)(C)CC1=O [Compound T25] | 30% | 20% | 80% | 70% | 80% | 80% | 100% | 100%
CCc1ccc(-c2ccc(Cl)c(F)c2)cc1C1=C(O)C(C)(C)CC(C)(C)C1=O [Compound T64] | 30% | 10% | 70% | 60% | 50% | 80% | 100% | 80%
